Earlier results in patent EP4691460A1, “RAMELTEON SUBLINGUAL FILM AND PREPARATION METHOD THEREFOR” (Hangzhou Chengbang Pharmaceutical Technology Co., Ltd, priority 2023, dated 2024).

Key:
MT1 receptors = MT1 receptors (Homo sapiens, UniProt P48039); conditions: fraction of the affinity of ramelteon
MT2 receptors = target: T1, MT2 receptors (Homo sapiens, UniProt P49286); conditions: fraction of the affinity of ramelteon
T1 sequence (P49286 1-362): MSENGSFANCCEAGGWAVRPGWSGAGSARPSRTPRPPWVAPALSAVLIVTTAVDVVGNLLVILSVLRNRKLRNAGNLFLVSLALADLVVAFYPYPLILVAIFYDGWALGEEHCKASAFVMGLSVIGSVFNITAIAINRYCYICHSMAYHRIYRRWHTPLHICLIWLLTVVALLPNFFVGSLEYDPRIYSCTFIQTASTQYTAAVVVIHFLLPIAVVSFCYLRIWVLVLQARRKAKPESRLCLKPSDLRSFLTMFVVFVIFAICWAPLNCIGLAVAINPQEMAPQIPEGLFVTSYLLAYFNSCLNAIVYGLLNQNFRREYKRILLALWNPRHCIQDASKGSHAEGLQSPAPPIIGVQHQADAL

[1] = oral administration, clinical data
[2] = taken with a high-fat meal versus fasting

Chain of MT1 receptors (P48039 whole entry): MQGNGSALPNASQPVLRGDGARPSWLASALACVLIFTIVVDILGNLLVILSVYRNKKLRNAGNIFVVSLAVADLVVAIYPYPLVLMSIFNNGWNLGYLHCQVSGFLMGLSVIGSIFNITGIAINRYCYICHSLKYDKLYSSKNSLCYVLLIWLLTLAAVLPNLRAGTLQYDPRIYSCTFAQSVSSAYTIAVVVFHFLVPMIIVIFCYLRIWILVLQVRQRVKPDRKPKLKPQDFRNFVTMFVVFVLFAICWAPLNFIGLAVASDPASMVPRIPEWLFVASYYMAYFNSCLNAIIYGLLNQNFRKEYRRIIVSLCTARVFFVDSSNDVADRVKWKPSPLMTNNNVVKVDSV

drug absorbed after oral administration [1]	median time to peak drug concentration [1]	absolute bioavailability (oral administration, first pass effect) [%]	AUC higher than that of fasting administration (taken with a high-fat meal) [%]	Cmax reduction [2] [%]	median Tmax delay [2] [min]	total amount relative to the metabolic substrate (main metabolite versus ramelteon)	affinity with MT1 receptors relative to the metabolic substrate (MT1 receptors)	affinity with MT2 receptors relative to the metabolic substrate (MT2 receptors)	SMILES
At least 84%	approximately 0.75 (0.5-1.5) h	1.4	31	22	45				CCC(=O)NCC[C@@H]1CCc2ccc3c(c21)CCO3 [ramelteon, Ramelteon]
						20-100 times	about one fifth	one tenth	CC(O)C(=O)NCC[C@@H]1CCc2ccc3c(c21)CCO3 (stereo partly drawn) [M-II]
